Measurements published in EPA's ToxRefDB 2.

Legend:
[1] = tested on: mouse; details: Multigenerational reproductive toxicity study, cd1, Oral, Water, dose end: 2 generation
[2] = tested on: rabbit; details: Prenatal developmental toxicity study, new zealand white, Oral, Gavage/Intubation, dose end: 29 GD
[3] = tested on: rat; details: Combined chronic toxicity/carcinogenicity, fischer, Oral, Gavage/Intubation, dose end: 104 week, group: systemic
[4] = tested on: mouse; details: Combined chronic toxicity/carcinogenicity, b6c3f1, Oral, Gavage/Intubation, dose end: 104 week, group: systemic
[5] = tested on: rat; details: Prenatal developmental toxicity study, sprague dawley, Oral, Gavage/Intubation, dose end: 19 GD
[6] = tested on: rat; details: Subchronic oral toxicity in rodents, fischer, Gavage/Intubation, dose end: 14 week, group: systemic
[7] = tested on: mouse; details: Subchronic oral toxicity in rodents, b6c3f1, Gavage/Intubation, dose end: 14 week, group: systemic
[8] = tested on: dog; details: Chronic toxicity, beagle, Oral, Capsule, dose end: 52 week, group: systemic
[9] = tested on: mouse; details: Carcinogenicity; cd1; Oral; Gavage/Intubation; dose end: 78 week; group: systemic; systemic / in life observation / body weight / body weight + systemic / in life observation / body weight / body weight gain
[10] = tested on: mouse; details: Subchronic oral toxicity in rodents, b6c3f1, Gavage/Intubation, dose end: 13 week, group: systemic
[11] = tested on: rat; details: Subchronic oral toxicity in rodents, fischer, Gavage/Intubation, dose end: 13 week, group: systemic
[12] = tested on: rat; details: Chronic toxicity, sprague dawley, Oral, Gavage/Intubation, dose end: 24 month, group: systemic
[13] = group: offspring, systemic / in life observation / body weight / offspring (pup) weight + systemic / in life observation / food consumption / food consumption…
[14] = group: parental, systemic / in life observation / body weight / body weight + systemic / organ weight / ovary / relative to body weight + systemic / organ …
[15] = group: parental, systemic / in life observation / water consumption / water consumption
[16] = group: reproductive, reproductive / offspring survival early / litter size / litter size + reproductive / reproductive performance / estrous cycle / length + …
[17] = group: developmental, systemic / in life observation / body weight / fetal weight
[18] = group: maternal, reproductive / reproductive performance / aborted / aborted + systemic / in life observation / body weight / body weight + systemic / in …
[19] = systemic / in life observation / body weight / body weight
[20] = systemic / in life observation / body weight / body weight + systemic / pathology microscopic / pancreas / atrophy
[21] = systemic / pathology microscopic / pancreas / hyperplasia
[22] = group: developmental, developmental / developmental malformation / bone / unossified + systemic / in life observation / body weight / fetal weight
[23] = group: maternal, systemic / in life observation / body weight / body weight + systemic / in life observation / body weight / body weight gain + systemic / …
[24] = systemic / in life observation / body weight / body weight + systemic / in life observation / body weight / body weight gain + systemic / …
[25] = systemic / pathology microscopic / pancreas / hyperplasia + systemic / pathology microscopic / pancreas / inflammation + systemic / …
[26] = systemic / clinical chemistry / albumin / albumin + systemic / clinical chemistry / albumin-globulin ratio / albumin-globulin ratio + …
[27] = systemic / hematology / leukocyte (wbc) count differential / leukocyte (wbc) + systemic / pathology microscopic / bone marrow / …
[28] = systemic / in life observation / body weight / body weight + systemic / in life observation / body weight / body weight gain + systemic / in…
[29] = systemic / organ weight / liver / absolute + systemic / organ weight / liver / relative to body weight
[30] = systemic / clinical chemistry / alkaline phosphatase (alp/alk) / alkaline phosphatase (alp/alk) + systemic / clinical chemistry / urea …
[31] = systemic / pathology microscopic / liver / hyperplasia
[32] = systemic / pathology microscopic / liver / hyperplasia + systemic / pathology microscopic / bone marrow / [other]

For `NC=O` [Formamide], the LOAEL [1, 13] was > 190 mg/kg/day, the NEL [1, 13] was 26 mg/kg/day and the NOAEL [1, 13] was ≥ 190 mg/kg/day. The LEL ([1]; group: offspring, systemic / in life observation / food consumption / food consumption) was 87 mg/kg/day, the LOAEL [1, 14] was > 190 mg/kg/day and the NOAEL [1, 14] was ≥ 190 mg/kg/day. For the same compound, the LEL [1, 15] was 24 mg/kg/day, the NEL [1, 15] was < 24 mg/kg/day and the LEL [1, 16] was 190 mg/kg/day. The LOAEL [1, 16] was > 190 mg/kg/day, the NEL [1, 16] was 87 mg/kg/day and the NOAEL [1, 16] was ≥ 190 mg/kg/day. For the same compound, the LEL [2, 17] was 140 mg/kg/day, the LOAEL [2, 17] was > 140 mg/kg/day and the NEL [2, 17] was 70 mg/kg/day. The NOAEL [2, 17] was ≥ 140 mg/kg/day, the LEL [2, 18] was 140 mg/kg/day and the LOAEL [2, 18] was > 140 mg/kg/day. For the same compound, the NEL [2, 18] was 70 mg/kg/day, the NOAEL [2, 18] was ≥ 140 mg/kg/day and the LEL [3, 19] was 40 mg/kg/day. For the same compound, the LOAEL [3, 19] was 80 mg/kg/day, the NEL [3, 20] was 20 mg/kg/day and the NOAEL [3, 20] was 40 mg/kg/day. For the same compound, the LOAEL [4, 19] was 80 mg/kg/day, the NOAEL ([4]; systemic / in life observation / body weight / body weight + systemic / pathology microscopic / liver / adenoma/carcinoma combined + …) was 40 mg/kg/day and the LEL [4, 21] was 20 mg/kg/day. For the same compound, the NEL [4, 21] was < 20 mg/kg/day, the LEL [5, 22] was 100 mg/kg/day and the LOAEL [5, 22] was > 200 mg/kg/day. For the same compound, the NEL [5, 22] was 50 mg/kg/day, the NOAEL [5, 22] was ≥ 200 mg/kg/day and the LEL [5, 23] was 200 mg/kg/day. For the same compound, the LOAEL [5, 23] was > 200 mg/kg/day, the NEL [5, 23] was 100 mg/kg/day and the NOAEL [5, 23] was ≥ 200 mg/kg/day. It also gave an LEL ([6]; systemic / in life observation / body weight / body weight + systemic / hematology / [other] / [other] + systemic / hematology / erythrocyte…) of 40 mg/kg/day, an LOAEL ([6]; systemic / in life observation / body weight / body weight + systemic / in life observation / body weight / body weight gain) of 80 mg/kg/day and an NEL [6, 24] of 20 mg/kg/day. The NOAEL [6, 24] was 40 mg/kg/day, the LEL ([7]; systemic / in life observation / body weight / body weight gain + systemic / hematology / platelet / platelet) was 40 mg/kg/day and the LOAEL ([7]; systemic / pathology microscopic / pancreas / hyperplasia + systemic / pathology microscopic / pancreas / inflammation + systemic / in life …) was 80 mg/kg/day. It also gave an NEL [7, 25] of 20 mg/kg/day and an NOAEL [7, 25] of 40 mg/kg/day.

For `N#CSCSC#N` [Methylene bis(thiocyanate)], the LOAEL [8, 26] was 2 mg/kg/day, the NOAEL [8, 26] was 0.5 mg/kg/day and the LEL [8, 27] was 0.5 mg/kg/day. For the same compound, the NEL [8, 27] was < 0.5 mg/kg/day, the LEL [9] was 3 mg/kg/day and the LOAEL [9] was 3 mg/kg/day. For the same compound, the NEL [9] was 1.2 mg/kg/day, the NOAEL [9] was 1.2 mg/kg/day and the LOAEL [10, 28] was > 16 mg/kg/day. The NOAEL [10, 28] was ≥ 16 mg/kg/day, the LEL [10, 29] was 1 mg/kg/day and the NEL [10, 29] was < 1 mg/kg/day. The LEL [11, 30] was 1 mg/kg/day, the NEL [11, 30] was < 1 mg/kg/day and the LOAEL ([11]; systemic / in life observation / mortality / mortality) was 2 mg/kg/day. For the same compound, the NOAEL ([11]; systemic / in life observation / mortality / mortality + systemic / clinical chemistry / alanine aminotransferase (alt/sgpt) / alanine …) was 1 mg/kg/day, the LOAEL [12, 31] was 0.4 mg/kg/day and the NOAEL [12, 31] was < 0.4 mg/kg/day. For the same compound, the LEL [12, 32] was 0.4 mg/kg/day and the NEL [12, 32] was < 0.4 mg/kg/day.
